According to patent US20040072839A1, “1-Phenylalkylpiperazines” (priority 2002, published 2004):

molecular target: T1, human 5-HT1A-serotonergic receptor (Homo sapiens, UniProt P08908); assay: Radioligand binding to recombinant 5-HT1A receptors ([3H]8-OH-DPAT, HeLa cell membranes); conditions: 1 nM [3H]8-OH-DPAT; Ki from IC50 by Cheng & Prusoff; read-out: Ki, binding affinity for 5-HT1A receptors
T1 construct: expressed in transfected cells; host or cells: HeLa (human), stably transfected; membrane preparation
T1 sequence (P08908 1-422): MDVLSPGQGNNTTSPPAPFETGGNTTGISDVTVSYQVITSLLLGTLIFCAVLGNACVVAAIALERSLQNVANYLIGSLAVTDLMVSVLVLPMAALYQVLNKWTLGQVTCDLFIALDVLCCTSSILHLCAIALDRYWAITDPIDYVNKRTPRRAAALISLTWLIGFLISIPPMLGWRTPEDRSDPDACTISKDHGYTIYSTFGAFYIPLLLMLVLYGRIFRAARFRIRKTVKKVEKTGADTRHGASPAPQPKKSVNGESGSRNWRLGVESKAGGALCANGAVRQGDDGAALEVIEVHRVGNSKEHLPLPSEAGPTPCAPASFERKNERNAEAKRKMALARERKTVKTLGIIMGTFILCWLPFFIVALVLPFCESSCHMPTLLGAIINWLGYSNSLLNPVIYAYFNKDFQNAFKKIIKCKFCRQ
Procedure: Genomic clone coding for the human 5-HT1A-serotonergic receptor was stably transfected in a human cell line (HeLa). HeLa cells were grown as monolayers in Dulbecco's modified Eagle medium (DMEM), containing 10% foetal bovine serum, gentamycin (0.1 mg/ml) and 5% carbon dioxide, at 37° C. The cells were detached from the growth flask at 95% confluence by a cell scraper and were lysed in cold 5 mM Tris and 5 mM EDTA buffer (pH 7.4). The homogenates were centrifuged at 40000×g×20 minutes and the pellets were resuspended in a small volume of cold 5 mM Tris and 5 mM EDTA buffer (pH 7.4) and immediately frozen and stored at −70° C. until use. On the day of experiment, the cell membranes were resuspended in incubation buffer: 50 mM Tris HCl (pH 7.4), 2.5 mM MgCl2, […] (Fargin et al., Nature 335, 358-360, 1988). The membranes were incubated in a final volume of 1 ml for 30 minutes at 30° C. with 1 nM [^3H]8-OH-DPAT, in the absence or presence of the test compounds. Non-specific binding was determined in the presence of 10 μM 5-HT. Incubation was stopped by addition of cold Tris-HC1 buffer and rapid filtration through a 0.2%-polyethyleneimine-pretreated Whatman-GF/B or Schleicher-&-Schuell-GF52 filter.
The affinities of the tested compounds were evaluated as inhibition of specific binding of the radioligand to 5-HT1A receptors (IC50) by using the non-linear curve-fitting program Allfit (De Lean et al., Am. J. Physiol. 235, E97-E102 (1978). The IC50 value was converted to an affinity constant (Ki) by the equation of Cheng & Prusoff (Cheng Y. C., Prusoff W. H., Biochem. Pharmacol. 22, 3099-3108 (1973)).

Row | Structure (SMILES) | Ki
1 | O=C(C1CCCCC1)C(CCN1CCN(c2cccc3[nH]ccc23)CC1)c1ccccc1OC(F)(F)F (stereo not shown) [Example 44, 1-[4-Cyclohexyl-3-(2-trifluoromethoxyphenyl)-4-oxobutyl]-4-(4-indolyl)piperazine] | 1.14 nM
2 | CN(C)C(=O)c1ccccc1C(CCN1CCN(c2cccc3c2OCCO3)CC1)C(O)C1CCCCC1 (stereo not shown) [Example 40, 1-[4-Cyclohexyl-3-(2-dimethylaminocarbonylphenyl)-4-hydroxybutyl]-4-[5-(2,3-dihydro-1,4-benzodioxinyl)]piperazine] | 1.84 nM
3 | CCC(O)C(CCN1CCN(c2cccc3c2OCCO3)CC1)c1ccccc1OC(F)(F)F (stereo not shown) [Example 6, 1-[5-(2,3-Dihydro-1,4-benzodioxinyl)]-4-[4-hydroxy-3-(2-trifluoromethoxyphenyl)hexyl]piperazine] | 3.66 nM
4 | COc1cc(F)ccc1N1CCN(CCC(C(=O)C2CCCCC2)c2ccccc2C#N)CC1 (stereo not shown) [Example 15, 1-[3-(2-Cyanophenyl)-4-cyclohexyl-4-oxobutyl]-4-(4-fluoro-2-methoxyphenyl)piperazine] | 1.69 nM
5 | COC(C)C(CCN1CCN(c2cccc3c2OCCO3)CC1)c1ccccc1 (stereo not shown) [Example 11, 1-[5-(2,3-Dihydro-1,4-benzodioxinyl)]-4-[(4-methoxy-3-phenyl)pentyl]piperazine] | 3.65 nM
6 | COC(C1CCCCC1)C(CCN1CCN(c2ccccc2OCC(F)(F)F)CC1)c1ccccc1F (stereo not shown) [Example 1, 1-[4-Cyclohexyl-3-(2-fluorophenyl)-4-methoxybutyl]-4-[2-(2,2,2-trifluoroethoxy)phenyl]piperazine] | 1.45 nM
7 | N#Cc1ccccc1[C@@H](CCN1CCN(c2cccc3c2OCCO3)CC1)[C@@H](O)C1CCCCC1 (racemic) [Example 14, (RS,SR)-1-[3-(2-Cyanophenyl)-4-cyclohexyl-4-hydroxybutyl]-4-[5-(2,3-dihydro-1,4-benzodioxinyl)]piperazine] | 0.401 nM
8 | CCCOC(C1CCCCC1)C(CCN1CCN(c2cccc3c2OCCO3)CC1)c1ccccc1 (stereo not shown) [Example 25, 1-(4-Cyclohexyl-3-phenyl-4-propoxybutyl)-4-[5-(2,3-dihydro-1,4-benzodioxinyl)]piperazine] | 1.18 nM
9 | CC(O)C(CCN1CCN(c2cccc3c2OCCO3)CC1)c1ccccc1OC(F)(F)F (stereo not shown) [Example 5, 1-[5-(2,3-Dihydro-1,4-benzodioxinyl)]-4-[4-hydroxy-3-(2-trifluoromethoxyphenyl)pentyl]piperazine] | 8.31 nM
10 | COC(C1CCCCC1)C(CCN1CCN(c2cccc3c2OCCO3)CC1)c1ccccc1 (stereo not shown) [Example 17, 1-(4-cyclohexyl-4-methoxy-3-phenylbutyl)-4-[5-(2,3-dihydro-1,4-benzodioxinyl)]piperazine] | 0.64 nM
11 | CCOC(C1CCCCC1)C(CCN1CCN(c2cccc3c2OCCO3)CC1)c1ccccc1 (stereo not shown) [Example 19, 1-(4-Cyclohexyl-4-ethoxy-3-phenylbutyl)-4-[5-(2,3-dihydro-1,4-benzodioxinyl)]piperazine] | 0.69 nM
12 | C=CCOC(C1CCCCC1)C(CCN1CCN(c2cccc3c2OCCO3)CC1)c1ccccc1 (stereo not shown) [Example 21, 1-(4-Allyloxy-4-cyclohexyl-3-phenylbutyl)-4-[5-(2,3-dihydro-1,4-benzodioxinyl)]piperazine] | 0.77 nM
13 | CN(C)C(=O)c1ccccc1C(CCN1CCN(c2cccc3c2OCCO3)CC1)C(=O)C1CCCCC1 (stereo not shown) [Example 39, 1-[4-Cyclohexyl-3-(2-dimethylaminocarbonylphenyl)-4-oxobutyl]-4-[5-(2,3-dihydro-1,4-benzodioxinyl)]piperazine] | 2.92 nM
14 | N#Cc1ccccc1C(CCN1CCN(c2cccc3c2OCCO3)CC1)C(=O)C1CCCCC1 (stereo not shown) [Example 13, 1-[3-(2-Cyanophenyl)-4-cyclohexyl-4-oxobutyl]-4-[5-(2,3-dihydro-1,4-benzodioxinyl)]piperazine] | 0.53 nM
15 | C#CCOC(C1CCCCC1)C(CCN1CCN(c2ccc(F)cc2OC)CC1)c1ccccc1 (stereo not shown) [Example 24, 1-(4-Cyclohexyl-3-phenyl-4-propargyloxybutyl)-4-(4-fluoro-2-methoxyphenyl)piperazine] | 0.64 nM
16 | CC(C)C(O)C(CCN1CCN(c2cccc3c2OCCO3)CC1)c1ccccc1 (stereo not shown) [Example 29] | 1.08 nM
17 | OCC(CCN1CCN(c2cccc3c2OCCO3)CC1)c1ccccc1 (stereo not shown) [Example 37, 1-[5-(2,3-dihydro-1,4-benzodioxinyl)]-4-(4-hydroxy-3-phenylbutyl]piperazine] | 5.03 nM

Row | Structure (SMILES) | Ki
18 | CCOC(C1CCCCC1)C(CCN1CCN(c2ccc(F)cc2OC)CC1)c1ccccc1 (stereo not shown) [Example 20, 1-(4-Cyclohexyl-4-ethoxy-3-phenylbutyl)-4-(4-fluoro-2-methoxyphenyl)piperazine] | 3.19 nM
19 | C=CCC(O)C(CCN1CCN(c2cccc3c2OCCO3)CC1)c1ccccc1 (stereo not shown) [Example 34, 1-[5-(2,3-Dihydro-1,4-benzodioxinyl)]-4-(4-hydroxy-3-phenylhept-6-enyl)piperazine] | 1.67 nM
20 | CC(C)=CC(O)C(CCN1CCN(c2cccc3c2OCCO3)CC1)c1ccccc1 (stereo not shown) [Example 35, 1-[5-(2,3-Dihydro-1,4-benzodioxinyl)]-4-(4-hydroxy-6-methyl-3-phenylhept-5-enyl)piperazine] | 1.47 nM
21 | N#Cc1ccccc1C(CCN1CCN(c2cccc3c2OCCO3)CC1)C(O)C1CCCCC1 (racemic) [Example 14a, (RS)-1-[3-(2-Cyanophenyl)-4-cyclohexyl-4-hydroxybutyl]-4-[5-(2,3-dihydro-1,4-benzodioxinyl)]piperazine] | 0.878 nM
22 | CC(O)C(CCN1CCN(c2cccc3c2OCCO3)CC1)c1ccccc1 (stereo not shown) [Example 30] | 5.43 nM
23 | CC(C)CC(O)C(CCN1CCN(c2cccc3c2OCCO3)CC1)c1ccccc1 (stereo not shown) [Example 36] | 0.56 nM
24 | CCCC(O)C(CCN1CCN(c2cccc3c2OCCO3)CC1)c1ccccc1 (stereo not shown) [Example 27] | 1.09 nM
25 | C=CC(O)C(CCN1CCN(c2cccc3c2OCCO3)CC1)c1ccccc1OC(F)(F)F (stereo not shown) [Example 7, 1-[5-(2,3-Dihydro-1,4-benzodioxinyl)]-4-[4-hydroxy-3-(2-trifluoromethoxyphenyl)hex-5-enyl]piperazine] | 7.27 nM
26 | N#Cc1ccccc1C(CCN1CCN(c2cccc3c2OCCO3)CC1)C(O)C1CCCCC1 (racemic) [Example 14b, (SR)-1-[3-(2-Cyanophenyl)-4-cyclohexyl-4-hydroxybutyl]-4-[5-(2,3-dihydro-1,4-benzodioxinyl)]piperazine] | 0.965 nM
27 | CCCOC(CCC)C(CCN1CCN(c2cccc3c2OCCO3)CC1)c1ccccc1 (stereo not shown) [Example 12, 1-[5-(2,3-Dihydro-1,4-benzodioxinyl)]-4-[(4-propoxy-3-phenyl)heptyl]piperazine] | 3.01 nM
28 | COC(=O)O[C@@H](C1CCCCC1)[C@H](CCN1CCN(c2ccccc2OC)CC1)c1ccccc1F (racemic) [Example 46, (RS,SR) 1-[4-Cyclohexyl-3-(2-fluorophenyl)-4-methoxycarbonyloxybutyl]-4-(2-methoxyphenyl)piperazine] | 0.72 nM
29 | COc1cc(F)ccc1N1CCN(CCC(c2ccccc2)C(OC)C2CCCCC2)CC1 (stereo not shown) [Example 18, 1-(4-Cyclohexyl-4-methoxy-3-phenylbutyl)-4-(4-fluoro-2-methoxyphenyl)piperazine] | 0.81 nM
30 | CCC(O)C(CCN1CCN(c2cccc3c2OCCO3)CC1)c1ccccc1 (stereo not shown) [Example 26, 1-[5-(2,3-Dihydro-1,4-benzodioxinyl)]-4-(4-hydroxy-3-phenyl)hexylpiperazine] | 2.62 nM
31 | C=CCOC(C1CCCCC1)C(CCN1CCN(c2ccc(F)cc2OC)CC1)c1ccccc1 (stereo not shown) [Example 22, 1-(4-Allyloxy-4-cyclohexyl-3-phenylbutyl)-4-(4-fluoro-2-methoxyphenyl)piperazine] | 2.03 nM
32 | C#CC(O)C(CCN1CCN(c2cccc3c2OCCO3)CC1)c1ccccc1 (stereo not shown) [Example 33, 1-[5-(2,3-Dihydro-1,4-benzodioxinyl)]-4-(4-hydroxy-3-phenylhex-5-ynyl)piperazine] | 5.03 nM
33 | C#CCOC(C1CCCCC1)C(CCN1CCN(c2cccc3c2OCCO3)CC1)c1ccccc1 (stereo not shown) [Example 23, 1-(4-Cyclohexyl-3-phenyl-4-propargyloxybutyl)-4-[5-(2,3-dihydro-1,4-benzodioxinyl)]piperazine] | 0.63 nM
34 | CC=CC(O)C(CCN1CCN(c2cccc3c2OCCO3)CC1)c1ccccc1 (stereo not shown) [Example 32, 1-[5-(2,3-Dihydro-1,4-benzodioxinyl)]-4-(4-hydroxy-3-phenylhept-5-enyl)piperazine] | 3.57 nM
